Data on 18 compounds can be found in patent US12115178B2, “Acylated active agents and methods of their use for the treatment of autoimmune disorders” (Flagship Pioneering Innovations V, Inc., priority 2018, dated 2024).

Common to all, as to type: in vitro ADME
Data set [1] in a line: Assay 3. In vitro Colonic Material Stability Assay. To be noted: colonic material slurry, anaerobic, 1 or 10 μM.
Data set [2] can be described thus: Assay 2. Stability in Simulated Intestinal Fluid (SIF). To be noted: SIF pH 6.7 with pancreatin, 1 μM, 37° C. The method, boiled down: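 Compounds at 1 µM (from 1 mM DMSO stock) were incubated at 37 °C with agitation in simulated intestinal fluid: FaSSIF in pH 6.7 phosphate buffer with pancreatin. Aliquots taken from T0 onward were quenched with acetonitrile and analyzed by LC/MS for degradation rate.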

Data set [3] in a line: Assay 1. Stability in Simulated Gastric Fluid (SGF). The method in brief:
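Compound at 1 μM final (from 1 mM DMSO stock) incubated at 37° C in SGF: NaCl medium at pH 1.6 with FaSSIF powder and 0.1 mg/mL pepsin, prepared fresh. Aliquots taken at T0 and regular intervals, quenched with equal volume acetonitrile; LC/MS gives degradation rate.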

[4] abbreviates: SGF pH 1.6 with pepsin, 1 μM, 37° C.

`CCC(=O)O[C@@H]1[C@@H](OC(=O)CC)[C@H](OC(=O)/C=C/c2c[nH]c3ccccc23)OC[C@H]1OC(=O)CC` [Compound 91, (2S,3R,4S,5R)-3,4,5-tris(propanoyloxy)oxan-2-yl (2E)-3-(1H-indol-3-yl)prop-2-enoate]: in data set [1], the “Assay 3 (% Remaining at 24 h)” value is on record as “A (<25% of the tested compound remaining)”. For the same compound, the “Assay 2 (SIF) (% @ Remaining 4 hours)” value in data set [2] is on record as “A (<25% of the tested compound remaining)”. Also, the “Assay 1 (SGF) (% Remaining @ 1 hour)” value in data set [3] (setting [4]) is “C (>75% of the tested compound remaining)”.

For `CCC(=O)Oc1ccc(-c2cc(=O)c3c(OC(=O)CC)cc(OC(=O)CC)cc3o2)cc1` [Compound 172, 4-oxo-7-(propanoyloxy)-2-[4-(propanoyloxy)phenyl]-4H-chromen-5-yl propanoate], the “Assay 3 (% Remaining at 24 h)” value in data set [1] is on record as “B (25-75% of the tested compound remaining)”. The “Assay 2 (SIF) (% @ Remaining 4 hours)” value in data set [2] is “A (<25% of the tested compound remaining)”. In addition, in data set [3] (setting [4]), the “Assay 1 (SGF) (% Remaining @ 1 hour)” value is listed as “C (>75% of the tested compound remaining)”.

On to `CCC(=O)O[C@@H]1[C@@H](OC(=O)CC)[C@@H](OC(=O)CCc2c[nH]c3ccccc23)OC[C@@H]1OC(=O)CC` [Compound 126, (2R,3R,4S,5S)-3,4,5-tris(propanoyloxy)oxan-2-yl 3-(1H-indol-3-yl)propanoate], for which the “Assay 3 (% Remaining at 24 h)” value in data set [1] was “A (<25% of the tested compound remaining)”. Also, the “Assay 2 (SIF) (% @ Remaining 4 hours)” value in data set [2] is on record as “A (<25% of the tested compound remaining)”. The “Assay 1 (SGF) (% Remaining @ 1 hour)” value in data set [3] (setting [4]) is “C (>75% of the tested compound remaining)”.

Regarding `CCC(=O)Oc1ccc(-c2oc3cc(OC(=O)CC)cc(OC(=O)CC)c3c(=O)c2OC(=O)CC)cc1` [Compound 167, 4-[4-oxo-3,5,7-tris(propanoyloxy)-4H-chromen-2-yl]phenyl propanoate], in data set [1], the “Assay 3 (% Remaining at 24 h)” value was “A (<25% of the tested compound remaining)”. In addition, the “Assay 2 (SIF) (% @ Remaining 4 hours)” value in data set [2] is recorded as “A (<25% of the tested compound remaining)”. Moreover, in data set [3] (setting [4]), the “Assay 1 (SGF) (% Remaining @ 1 hour)” value is on record as “B (25-75% of the tested compound remaining)”.

Turning to `CCCC(=O)O[C@@H]1[C@@H](OC(=O)CCC)[C@H](C)O[C@@H](Oc2ccccc2C(=O)O)[C@@H]1OC(=O)CCC` [Compound 40, 2-(((2S,3R,4R,5S,6S)-3,4,5-tris(butyryloxy)-6-methyltetrahydro-2H-pyran-2-yl)oxy)benzoic acid], in data set [1], the “Assay 3 (% Remaining at 24 h)” value is given as “C (>75% of the tested compound remaining)”. In addition, the “Assay 2 (SIF) (% @ Remaining 4 hours)” value in data set [2] is listed as “C (>75% of the tested compound remaining)”. The “Assay 1 (SGF) (% Remaining @ 1 hour)” value in data set [3] (setting [4]) is on record as “C (>75% of the tested compound remaining)”.

Regarding `CCC(=O)OC[C@H]1O[C@H](OC(=O)CCc2c[nH]c3ccccc23)[C@H](OC(=O)CC)[C@@H](OC(=O)CC)[C@@H]1OC(=O)CC` [Compound 109, [(2R,3R,4S,5R,6R)-6-{[3-(1H-indol-3-yl)propanoyl]oxy}-3,4,5-tris(propanoyloxy)oxan-2-yl]methyl propanoate], the “Assay 3 (% Remaining at 24 h)” value in data set [1] was “A (<25% of the tested compound remaining)”. Besides, the “Assay 2 (SIF) (% @ Remaining 4 hours)” value in data set [2] is reported as “A (<25% of the tested compound remaining)”. Besides, the “Assay 1 (SGF) (% Remaining @ 1 hour)” value in data set [3] (setting [4]) is on record as “C (>75% of the tested compound remaining)”.

In the case of `CCC(=O)OC[C@H]1O[C@@H](OC(=O)CCc2c[nH]c3ccccc23)[C@H](OC(=O)CC)[C@@H](OC(=O)CC)[C@@H]1OC(=O)CC` [Compound 112, [(2R,3R,4S,5R,6S)-6-{[3-(1H-indol-3-yl)propanoyl]oxy}-3,4,5-tris(propanoyloxy)oxan-2-yl]methyl propanoate], in data set [1], the “Assay 3 (% Remaining at 24 h)” value is “A (<25% of the tested compound remaining)”. The “Assay 2 (SIF) (% @ Remaining 4 hours)” value in data set [2] is listed as “A (<25% of the tested compound remaining)”. Besides, the “Assay 1 (SGF) (% Remaining @ 1 hour)” value in data set [3] (setting [4]) was “C (>75% of the tested compound remaining)”.

Turning to `O=C(CCc1c[nH]c2ccccc12)O[C@H]1OC[C@H](OC(=O)CCc2c[nH]c3ccccc23)[C@H](OC(=O)CCc2c[nH]c3ccccc23)[C@H]1OC(=O)CCc1c[nH]c2ccccc12` [Compound 149, (2R,3R,4S,5S)-3,4,5-tris({[3-(1H-indol-3-yl)propanoyl]oxy})oxan-2-yl 3-(1H-indol-3-yl)propanoate], the “Assay 3 (% Remaining at 24 h)” value in data set [1] is given as “A (<25% of the tested compound remaining)”. Further, the “Assay 2 (SIF) (% @ Remaining 4 hours)” value in data set [2] is listed as “A (<25% of the tested compound remaining)”. Further, in data set [3] (setting [4]), the “Assay 1 (SGF) (% Remaining @ 1 hour)” value is given as “B (25-75% of the tested compound remaining)”.

Consider `CCC(=O)O[C@H]1OC[C@@H](OC(=O)CC)[C@@H](OC(=O)CC)[C@H]1OC(=O)CC` [Compound 101, (2R,3R,4R,5R)-3,4,5-tris(propanoyloxy)oxan-2-yl propanoate], for which the “Assay 3 (% Remaining at 24 h)” value in data set [1] is “A (<25% of the tested compound remaining)”. The “Assay 2 (SIF) (% @ Remaining 4 hours)” value in data set [2] is reported as “A (<25% of the tested compound remaining)”. Moreover, the “Assay 1 (SGF) (% Remaining @ 1 hour)” value in data set [3] (setting [4]) is listed as “C (>75% of the tested compound remaining)”.

`CCCC(=O)O[C@@H]1[C@@H](OC(=O)CCC)[C@@H](OC(=O)CCc2c[nH]c3ccccc23)OC[C@H]1OC(=O)CCC` [Compound 96, (2R,3R,4S,5R)-4,5-bis(butanoyloxy)-2-{[3-(1H-indol-3-yl)propanoyl]oxy}oxan-3-yl butanoate]: the “Assay 3 (% Remaining at 24 h)” value in data set [1] is “A (<25% of the tested compound remaining)”. The “Assay 2 (SIF) (% @ Remaining 4 hours)” value in data set [2] is reported as “A (<25% of the tested compound remaining)”. Further, the “Assay 1 (SGF) (% Remaining @ 1 hour)” value in data set [3] (setting [4]) is listed as “C (>75% of the tested compound remaining)”.

In the case of `CCC(=O)O[C@@H]1[C@@H](OC(=O)CC)[C@@H](OC(=O)CC)C(O)O[C@H]1C` (stereo partly drawn) [Compound 113, (3R,4R,5S,6S)-2-hydroxy-6-methyl-4,5-bis(propanoyloxy)oxan-3-yl propanoate], in data set [1], the “Assay 3 (% Remaining at 24 h)” value is recorded as “C (>75% of the tested compound remaining)”. Moreover, the “Assay 2 (SIF) (% @ Remaining 4 hours)” value in data set [2] is “A (<25% of the tested compound remaining)”. For the same compound, in data set [3] (setting [4]), the “Assay 1 (SGF) (% Remaining @ 1 hour)” value is reported as “C (>75% of the tested compound remaining)”.

Take `O=C(CCc1c[nH]c2ccccc12)O[C@@H]1O[C@H](C(=O)O)[C@@H](OC(=O)CCc2c[nH]c3ccccc23)[C@H](OC(=O)CCc2c[nH]c3ccccc23)[C@H]1OC(=O)CCc1c[nH]c2ccccc12` [Compound 49, (2S,3S,4S,5R,6S)-3,4,5,6-tetrakis({[3-(1H-indol-3-yl)propanoyl]oxy})oxane-2-carboxylic acid]: the “Assay 3 (% Remaining at 24 h)” value in data set [1] was “A (<25% of the tested compound remaining)”. In data set [2], the “Assay 2 (SIF) (% @ Remaining 4 hours)” value is given as “A (<25% of the tested compound remaining)”. Also, the “Assay 1 (SGF) (% Remaining @ 1 hour)” value in data set [3] (Run 1, SGF) is given as “B (25-75% of the tested compound remaining)”; in data set [3] (Run 2, SGF) it was “C (>75% of the tested compound remaining)”.

In the case of `CCC(=O)O[C@@H]1O[C@H](C(=O)O)[C@@H](OC(=O)CC)[C@H](OC(=O)CC)[C@H]1OC(=O)CC` [Compound 47, (2S,3S,4S,5R,6S)-3,4,5,6-tetrakis(propanoyloxy)oxane-2-carboxylic acid], in data set [1], the “Assay 3 (% Remaining at 24 h)” value is “A (<25% of the tested compound remaining)”. The “Assay 2 (SIF) (% @ Remaining 4 hours)” value in data set [2] is “A (<25% of the tested compound remaining)”. The “Assay 1 (SGF) (% Remaining @ 1 hour)” value in data set [3] (setting [4]) is “C (>75% of the tested compound remaining)”.

Consider `CCCC(=O)OC[C@H]1O[C@H](OC(=O)CCc2c[nH]c3ccccc23)[C@H](OC(=O)CCC)[C@@H](OC(=O)CCC)[C@@H]1OC(=O)CCC` [Compound 90, [(2R,3R,4S,5R,6R)-3,4,5-tris(butanoyloxy)-6-{[3-(1H-indol-3-yl)propanoyl]oxy}oxan-2-yl]methyl butanoate], for which the “Assay 3 (% Remaining at 24 h)” value in data set [1] is “A (<25% of the tested compound remaining)”. For the same compound, in data set [2], the “Assay 2 (SIF) (% @ Remaining 4 hours)” value is recorded as “B (25-75% of the tested compound remaining)”. In data set [3] (setting [4]), the “Assay 1 (SGF) (% Remaining @ 1 hour)” value is recorded as “C (>75% of the tested compound remaining)”.

In the case of `CCCC(=O)OC[C@H]1O[C@@H](OC(=O)CCc2c[nH]c3ccccc23)[C@H](OC(=O)CCC)[C@@H](OC(=O)CCC)[C@@H]1OC(=O)CCC` [Compound 85, [(2R,3R,4S,5R,6S)-3,4,5-tris(butanoyloxy)-6-{[3-(1H-indol-3-yl)propanoyl]oxy}oxan-2-yl]methyl butanoate], the “Assay 3 (% Remaining at 24 h)” value in data set [1] is given as “A (<25% of the tested compound remaining)”. Moreover, the “Assay 2 (SIF) (% @ Remaining 4 hours)” value in data set [2] is listed as “A (<25% of the tested compound remaining)”. Moreover, the “Assay 1 (SGF) (% Remaining @ 1 hour)” value in data set [3] (setting [4]) is listed as “B (25-75% of the tested compound remaining)”.

`CCCC(=O)O[C@@H]1[C@@H](OC(=O)CCC)[C@H](Oc2ccccc2C(=O)O)OC[C@H]1OC(=O)CCC` [Compound 186, 2-{[(2S,3R,4S,5R)-3,4,5-tris(butanoyloxy)oxan-2-yl]oxy}benzoic acid]: in data set [1], the “Assay 3 (% Remaining at 24 h)” value was “A (<25% of the tested compound remaining)”. Moreover, the “Assay 2 (SIF) (% @ Remaining 4 hours)” value in data set [2] is “A (<25% of the tested compound remaining)”. In data set [3] (setting [4]), the “Assay 1 (SGF) (% Remaining @ 1 hour)” value is reported as “C (>75% of the tested compound remaining)”.

In the case of `CCC(=O)O[C@@H]1[C@@H](OC(=O)CC)[C@H](C)O[C@H](OC(=O)/C=C/c2c[nH]c3ccccc23)[C@@H]1OC(=O)CC` [Compound 107, (2R,3R,4R,5S,6S)-6-methyl-3,4,5-tris(propanoyloxy)oxan-2-yl (2E)-3-(1H-indol-3-yl)prop-2-enoate], in data set [1], the “Assay 3 (% Remaining at 24 h)” value is reported as “B (25-75% of the tested compound remaining)”. In addition, the “Assay 2 (SIF) (% @ Remaining 4 hours)” value in data set [2] is given as “A (<25% of the tested compound remaining)”. Also, in data set [3] (setting [4]), the “Assay 1 (SGF) (% Remaining @ 1 hour)” value is reported as “B (25-75% of the tested compound remaining)”.

In the case of `CCC(=O)O[C@@H]1[C@@H](OC(=O)CC)[C@@H](OC)OC[C@@H]1OC(=O)CC` [Compound 53, (2S,3R,4S,5S)-2-methoxy-3,5-bis(propanoyloxy)oxan-4-yl propanoate], the “Assay 3 (% Remaining at 24 h)” value in data set [1] was “C (>75% of the tested compound remaining)”. Besides, the “Assay 2 (SIF) (% @ Remaining 4 hours)” value in data set [2] is on record as “B (25-75% of the tested compound remaining)”. In addition, the “Assay 1 (SGF) (% Remaining @ 1 hour)” value in data set [3] (setting [4]) is “C (>75% of the tested compound remaining)”.
